# Reference: patent US20250041412A1, “TRANSMEMBRANE NEOANTIGENIC PEPTIDES” (INSTITUT CURIE, priority 2021, published 2025)
# Entries after “also recorded” stand apart in the source; their conditions may differ.
# Columns and labels:
# CD8+ T cells [1] = experiment: Priming of naive CTLs by peptide-loaded moDCs, two-colour tetramer staining (immunogenicity); type: cell-based, human; conditions: for expansion of specific CD8+ T cells (tetramer staining): one HLA-A2+ healthy donor, at least one magnitude order more tetramer positive cells than control without peptides; for specific CD8+ T expansions (immunogenicity): total of 6 HLA-A2+ healthy donors, FIG. 12A
# Protocol: Priming of naïve CTLs. PBMCs were obtained by Ficoll gradient separation from HLA-A2+healthy blood donors. CD14+, CD4+ and CD8+ cells were purified by positive selection using magnetic beads (Miltenyi Biotec). While CD4+ and CD8+ T cells were cryopreserved until the experiment day, CD14+ fraction was cultured in the presence of IL-4 (50 ng/mL) and GM-CSF (10 ng/mL) at 10^6 cells/mL during 5 days to obtain moDCs. After this period of time, the moDCs were maturated with LPS and incubated with synthetic ER-derived peptides at a final concentration of 1 μg/mL for 2 hours. Finally, peptide-loaded moDCs were co-cultured with autologous CD4+ and CD8+ T cells in culture medium supplemented with IL-2 (10 U/ml) and IL-7 (100 ng/ml). The ER-derived peptide stimulation of specific CD8+CTL populations was assessed by MHC-I tetramer staining by flow cytometry using a combination of two-color tetramer for each peptide.
# (§1) Tetramer Staining. Cells were resuspended in PBS, stained with Live/Dead Aqua-405 nm (ThermoFisher) during 20 minutes at 4° C. and washed once. After that, cells were resuspended in PBS-1% BSA containing the mix of SA-coupled tetramers and incubated in the dark at room temperature during 20 minutes. Without further washing, surface antibodies were added in PBS-1% BSA and cells were incubated 20 minutes in the dark at 4° C. Surface antibodies were a combination of anti-CD3-BV650+anti-CD8-PECy7 in combination with anti-CCR7-AF700+anti-CD45RA-BUV395 when required. Finally, cells were washed twice and resuspended in FACS buffer for flow cytometry analysis.
# Priming assays were thus performed to test the ability of identified peptides to expand specific cytotoxic T cells. PBMCs from HLA-A2+healthy donors were used to generate monocyte derived-DCs (moDCs). After loading the moDCs with a mix of synthetic peptides, autologous co-culture was performed with CD4+ and CD8+ T cells. Finally, the expansion of specific CD8+ T cells was analysed by flow cytometry using two-colours tetramer staining. As a control of specific expansion, the co-culture was performed in the absence of peptides.
# The same experiment was performed in order to evaluate the response in additional 5 donors. […] As a positive of expansions, mutated Melan-A peptide ([…]) were used.
# CD8+ T cells [2] = experiment: Tetramer staining of CD8+ T cells from LUAD patient samples (TILs, tumor, juxta tumor, lymph nodes, blood); type: cell-based, human; conditions: TILs from LUAD patients expanded with peptide mix + IL-2 or IL-2 only
# Protocol: as §1
# Tissues and Blood samples. […]
# Tumor infiltrating lymphocytes (TILs) cultures. […] Cells were feed/split as necessary during 15-20 days and cryopreserve or analyzed for tetramer staining.
# In a first set of experiments tumor infiltrating lymphocytes (TILs) expanded with a mix of TE-derived peptides and Il-2, or only with Il-2, were analyzed by tetramer staining. […]
# Using this strategy, CD8+ T cells present in Tumor, juxta-tumor, invaded lymph-nodes and blood derived from LUAD patient samples were thus analyzed. The cell phenotype was determined based on the expression of surface markers CCR7 and CD45RA for Naïve (CCR7+CD45+), Central Memory (CM, CCR7+CD45RA−) Effector Memory (EM, CCR7−CD45−) and Terminal Effectors (TE, CCR7−CD45+) T cells. […]
# [3] = target: T1, HLA-A2 molecule (HLA-A*02:01), recombinant monomer (human); experiment: HLA-A2 monomer stabilisation and tetramer formation with synthetic peptide, flow cytometry with PE anti-b2m; positive control CMV peptide
# T1 construct: Peptide-free monomer that is incubated with a synthetic peptide for 48 h at 18 C; also called HLA-A2 allele; HLA-A2 monomers
Molecule,specific CD8+ T expansions (immunogenicity) (CD8+ T cells [1]),further results
AILPKANTV,specific CD8+ T expansions,expansion of specific CD8+ T cells (tetramer staining) (CD8+ T cells [1]): expand specific CD8+ T cells
AMDGKELSL,specific CD8+ T expansions,–
FLGTRVTRV,specific CD8+ T expansions,–
FLIVAEILI,–,expansion of specific CD8+ T cells (tetramer staining) (CD8+ T cells [1]): expand specific CD8+ T cells
GLLNISHTA,specific CD8+ T expansions,–
GLPSHVELA,specific CD8+ T expansions; also recorded: immunogenic,CD8+ T cells / TILs recognizing the peptide (tetramer positive) (CD8+ T cells [2]): found TILs recognizing peptide
ILHSLVTGV,specific CD8+ T expansions,–
ILSGYGPCV,specific CD8+ T expansions,–
ILTASITSI,specific CD8+ T expansions,–
LLDRFGYHV,specific CD8+ T expansions,–
LLGETKVYV,specific CD8+ T expansions,expansion of specific CD8+ T cells (tetramer staining) (CD8+ T cells [1]): expand specific CD8+ T cells
LLHLESFLV,specific CD8+ T expansions,–
LLTSWHLYL,specific CD8+ T expansions,–
MLMKTVWQA,specific CD8+ T expansions,–
MLVTWELAL,specific CD8+ T expansions,–
RLADHLSFC,specific CD8+ T expansions; also recorded: immunogenic,expansion of specific CD8+ T cells (tetramer staining) (CD8+ T cells [1]): expand specific CD8+ T cells

Molecule,specific CD8+ T expansions (immunogenicity) (CD8+ T cells [1]),further results
RLLHLESFL,specific CD8+ T expansions,expansion of specific CD8+ T cells (tetramer staining) (CD8+ T cells [1]): expand specific CD8+ T cells
RQAPGFHHA,specific CD8+ T expansions,–
SLMQSGSPV,specific CD8+ T expansions,–
VLLTNTIWL,specific CD8+ T expansions,–
VLMWTMAHL,specific CD8+ T expansions,–
YLPYFLKSL,specific CD8+ T expansions,–
YLWTTFFPL,specific CD8+ T expansions,expansion of specific CD8+ T cells (tetramer staining) (CD8+ T cells [1]): expand specific CD8+ T cells
AILPKANTV (Synthetic peptide) [chimeric transcript-derived peptide AILPKANTV],–,percentage of fluorescence relative to positive control (HLA-A2 tetramer formation) [3]: > 50%
AMDGKELSL (Synthetic peptide) [chimeric transcript-derived peptide AMDGKELSL],–,percentage of fluorescence relative to positive control (HLA-A2 tetramer formation) [3]: > 50%
FLIVAEILI (Synthetic peptide) [chimeric transcript-derived peptide FLIVAEILI],–,percentage of fluorescence relative to positive control (HLA-A2 tetramer formation) [3]: > 50%
MLMKTVWQA (Synthetic peptide; also called peptide 80) [chimeric transcript-derived peptide MLMKTVWQA],–,percentage of fluorescence relative to positive control (HLA-A2 tetramer formation) [3]: > 50%
RLADHLSFC (Synthetic peptide; also called peptide 64) [chimeric transcript-derived peptide RLADHLSFC],–,percentage of fluorescence relative to positive control (HLA-A2 tetramer formation) [3]: > 50%
RLLHLESFL (Synthetic peptide) [chimeric transcript-derived peptide RLLHLESFL],–,percentage of fluorescence relative to positive control (HLA-A2 tetramer formation) [3]: > 50%
YLPYFLKSL (Synthetic peptide) [chimeric transcript-derived peptide YLPYFLKSL],–,percentage of fluorescence relative to positive control (HLA-A2 tetramer formation) [3]: > 50%
FLGTRVTRV (Synthetic peptide) [chimeric transcript-derived peptide FLGTRVTRV],–,percentage of fluorescence relative to positive control (HLA-A2 tetramer formation) [3]: > 50%
